In patent publication US7511041B2, “Fused azole-pyrimidine derivatives” (Bayer Pharmaceuticals Corporation, priority 2002, dated 2009):
Like-named read-outs stand apart in the source and are kept apart here. One block for each compound: values may come before it.

How the values were obtained:
[1] = target: T1, Recombinant human PI3Kγ (full length human PI3K p110γ) (Homo sapiens, UniProt P48736); experiment: Kinase assay of PI3Kγ (solid-phase lipid kinase assay); type: biochemical
T1 construct: full length human PI3K p110γ fused with a His6-tag at the C-terminus; His6 (C); purchased ALEXIS BIOCHEMICALS #201-055-C010; host or cells: S. frugiperda 9 insect cells
T1 sequence (P48736 whole entry, the tested form may be a part): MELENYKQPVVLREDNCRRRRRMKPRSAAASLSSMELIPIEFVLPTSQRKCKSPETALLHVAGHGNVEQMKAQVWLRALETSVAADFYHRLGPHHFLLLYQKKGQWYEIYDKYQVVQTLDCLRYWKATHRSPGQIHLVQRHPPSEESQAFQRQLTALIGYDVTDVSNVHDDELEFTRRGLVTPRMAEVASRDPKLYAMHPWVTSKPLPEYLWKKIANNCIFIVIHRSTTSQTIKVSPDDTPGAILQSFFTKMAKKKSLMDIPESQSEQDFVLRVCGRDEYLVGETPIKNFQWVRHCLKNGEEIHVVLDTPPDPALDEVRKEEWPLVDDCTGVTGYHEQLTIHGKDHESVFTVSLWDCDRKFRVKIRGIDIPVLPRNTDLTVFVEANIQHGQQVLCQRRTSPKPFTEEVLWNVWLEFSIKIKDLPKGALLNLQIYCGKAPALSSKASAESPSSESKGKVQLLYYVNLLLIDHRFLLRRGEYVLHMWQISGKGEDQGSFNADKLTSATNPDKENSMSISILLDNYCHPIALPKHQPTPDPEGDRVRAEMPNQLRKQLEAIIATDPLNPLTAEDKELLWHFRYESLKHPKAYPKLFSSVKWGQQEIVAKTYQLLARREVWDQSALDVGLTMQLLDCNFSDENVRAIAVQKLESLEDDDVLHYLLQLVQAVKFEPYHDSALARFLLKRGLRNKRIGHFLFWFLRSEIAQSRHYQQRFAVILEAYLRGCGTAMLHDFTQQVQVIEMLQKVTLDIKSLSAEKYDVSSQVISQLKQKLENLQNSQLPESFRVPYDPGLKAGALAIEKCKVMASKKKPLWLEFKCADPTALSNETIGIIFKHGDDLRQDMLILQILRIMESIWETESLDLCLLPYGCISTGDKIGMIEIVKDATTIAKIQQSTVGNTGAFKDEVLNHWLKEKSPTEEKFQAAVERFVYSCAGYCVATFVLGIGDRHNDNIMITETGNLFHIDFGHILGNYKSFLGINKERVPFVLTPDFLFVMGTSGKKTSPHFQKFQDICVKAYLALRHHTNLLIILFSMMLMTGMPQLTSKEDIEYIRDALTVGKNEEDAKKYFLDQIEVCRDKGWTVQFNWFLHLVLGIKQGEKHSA

[2] = Table 1, isozyme not given, read-out: in vitro
[3] = in vitro PI3K-γ inhibitory activity, class symbols A-D, read-out: in vitro PI3K-gamma
[4] = in vitro PI3K-γ inhibitory activity, class symbols, read-out: in vitro PI3K-gamma

SMILES: Cl.NCC(=O)Oc1ccc2c(c1)C1=NCCN1C(/C=C(\O)c1cccnc1)=N2 [Example 1-128]
melting point: > 300 °C
IC50 [1, 2]: < 100 nM

SMILES: Cc1cccc(C(=O)NC2=Nc3ccccc3C3=NCCN23)c1.O=C(O)C(F)(F)F [Example 2-217]
melting point: 239 to 241 °C
IC50 [1, 3]: 100 to 500 nM

SMILES: CC(C)(C)OC(=O)CCc1ccc2c(n1)N=C(/C=C(\O)c1cccnc1)N1CCN=C21 [Example 1-163]
melting point: 200 °C
IC50 [1, 2]: 100 to 500 nM

SMILES: OCCOc1cccc2c1N=C(/C=C(\O)c1cccnc1)N1CCN=C21 [Example 1-91]
melting point: 211 to 212 °C
IC50 [1, 2]: 100 to 500 nM

SMILES: O/C(=C\C1=Nc2ccccc2C2=NCCN12)c1ccno1 [Example 1-152]
melting point: 148 °C
IC50 [1, 2]: 100 to 500 nM

SMILES: CC(=O)Nc1cccc(C(=O)NC2=Nc3ccccc3C3=NCCN23)c1.O=C(O)C(F)(F)F [Example 2-262]
melting point: 253 °C (dec.)
IC50 [1, 3]: > 2000 nM

SMILES: COc1c(OCC(=O)N(C)C)ccc2c1N=C(/C=C(\O)c1cccnc1)N1CCN=C21 [Example 1-27]
melting point: 241 to 242 °C
IC50 [1, 2]: < 100 nM

SMILES: Cc1ccc(/C(O)=C/C2=Nc3ccccc3C3=NCCN23)cn1 [Example 1-136]
melting point: 217 to 219 °C
IC50 [1, 2]: 100 to 500 nM

SMILES: O=C(NCCc1ccc2c(n1)N=C(/C=C(\O)c1cccnc1)N1CCN=C21)N1CCCCC1 [Example 1-205]
melting point: 246 °C
IC50 [1, 2]: 100 to 500 nM

SMILES: Cl.O/C(=C\C1=Nc2ccccc2C2=NCCN12)c1ccc2[nH]cnc2c1 [Example 1-157]
melting point: > 300 °C
IC50 [1, 2]: 100 to 500 nM

SMILES: CC(C)(C)OC(=O)COc1cccc2c1N=C(/C=C(\O)c1cccnc1)N1CCN=C21.Cl [Example 1-90]
melting point: 222 to 223 °C
IC50 [1, 2]: < 100 nM

SMILES: O/C(=C\C1=Nc2ccccc2C2=NCCN12)c1ccoc1 [Example 1-145]
melting point: 155 to 156 °C
IC50 [1, 2]: 100 to 500 nM

SMILES: O/C(=C\C1=Nc2ccccc2C2=NCCN12)c1ccsc1 [Example 1-148]
melting point: 182 to 183 °C
IC50 [1, 2]: 100 to 500 nM

SMILES: Cl.O/C(=C\C1=Nc2cc(C(F)(F)F)ccc2C2=NCCN12)c1cccnc1 [Example 1-122]
melting point: 321 °C
IC50 [1, 2]: 100 to 500 nM

SMILES: Cc1nc(NC(=O)OC(C)(C)C)sc1/C(O)=C/C1=Nc2ccccc2C2=NCCN12 [Example 1-179]
melting point: > 300 °C
IC50 [1, 2]: > 2000 nM

SMILES: COc1cc2c(cc1OC)C1=NCCN1C(/C=C(\O)c1ccccc1)=N2 [Example 1-185]
melting point: 249 to 252 °C
IC50 [1, 2]: 500 to 2000 nM

SMILES: CC(=O)Nc1ccc(/C(O)=C/C2=Nc3c(Br)cc(C)cc3C3=NCCN23)cn1.Cl [Example 1-46]
melting point: > 285 °C
IC50 [1, 2]: < 100 nM

SMILES: CN1CCN(c2ccc3c(c2)N=C(/C=C(\O)c2ccc4[nH]cnc4c2)N2CCN=C32)CC1.Cl [Example 1-108]
melting point: > 300 °C
IC50 [1, 2]: 100 to 500 nM

SMILES: O/C(=C\C1=Nc2ccccc2C2=NCCN12)c1ccccc1O [Example 1-170]
melting point: 252 to 256 °C
IC50 [1, 2]: > 2000 nM

SMILES: COc1cc(OC)c2c(c1)C1=NCCN1C(/C=C(\O)c1cccnc1)=N2 [Example 1-42]
melting point: 218 °C
IC50 [1, 2]: < 100 nM

SMILES: COc1c(OCc2nn[nH]n2)ccc2c1N=C(/C=C(\O)c1cccnc1)N1CCN=C21 [Example 1-196]
melting point: 229 to 231 °C
IC50 [1, 2]: < 100 nM

SMILES: O=[N+]([O-])c1cccc(/C(O)=C/C2=Nc3ccccc3C3=NCCN23)c1 [Example 1-167]
melting point: 276 °C
IC50 [1, 2]: > 2000 nM

SMILES: O/C(=C\C1=Nc2ccccc2C2=NCCN12)c1ccccc1 [Example 1-166]
melting point: 130 to 139 °C
IC50 [1, 2]: 500 to 2000 nM

SMILES: N#Cc1ccc(/C(O)=C/C2=Nc3ccccc3C3=NCCN23)s1 [Example 1-177]
melting point: 256 °C
IC50 [1, 2]: 500 to 2000 nM

SMILES: COc1cc2c(cc1OC)C1=NCCN1C(/C=C(\O)c1ccc(C#N)cc1)=N2 [Example 1-187]
melting point: 307 to 308 °C
IC50 [1, 2]: > 2000 nM

SMILES: Cc1cccc2c1N=C(/C=C(\O)c1cccnc1)N1CCN=C21 [Example 1-75]
melting point: 248 °C
IC50 [1, 2]: 100 to 500 nM

SMILES: COc1c(OCCN2CCCCC2)ccc2c1N=C(/C=C(\O)c1cccnc1)N1CCN=C21 [Example 1-20]
melting point: 162 to 163 °C
IC50 [1, 2]: 100 to 500 nM

SMILES: COc1cc2c(c(OC)c1C)N=C(/C=C(\O)c1cccnc1)N1CCN=C21 [Example 1-62]
melting point: 278 °C
IC50 [1, 2]: < 100 nM

SMILES: O/C(=C\C1=Nc2cc(Cl)ccc2C2=NCCN12)c1ccccc1 [Example 1-190]
melting point: 186 to 188 °C
IC50 [1, 2]: 500 to 2000 nM

SMILES: COc1c(OCCN(C)C)ccc2c1N=C(/C=C(\O)c1cccnc1)N1CCN=C21 [Example 1-19]
melting point: 183 to 184 °C
IC50 [1, 2]: 100 to 500 nM

SMILES: O/C(=C\C1=Nc2ccc(Cl)cc2C2=NCCN12)c1cccnc1 [Example 1-189]
melting point: 260 °C
IC50 [1, 2]: 500 to 2000 nM

More lines, now with the values ahead:

melting point: 278 °C (dec.)
IC50 [1, 3]: > 2000 nM
SMILES: CS(=O)(=O)c1ccc(C(=O)NC2=Nc3ccccc3C3=NCCN23)cc1 [Example 2-245]

melting point: 219 °C (dec.)
IC50 [1, 3]: 500 to 2000 nM
SMILES: O=C(NC1=Nc2ccccc2C2=NCCN12)c1csnn1 [Example 2-307]

melting point: 185 °C (dec.)
IC50 [1, 4]: < 100 nM
SMILES: COc1cccc2c1N=C(NC(=O)c1cccnc1Cl)N1CCN=C21 [Example 2-118]

melting point: 288 °C
IC50 [1, 4]: 100 to 500 nM
SMILES: Cl.O=C(NC1=Nc2ccc(Br)cc2C2=NCCN12)c1ccc2[nH]cnc2c1 [Example 2-89]

melting point: 196 to 197 °C
IC50 [1, 4]: 100 to 500 nM
SMILES: CNc1ccc(C(=O)NC2=Nc3ccccc3C3=NCCN23)cn1 [Example 2-153]

melting point: 248 to 249 °C
IC50 [1, 4]: 100 to 500 nM
SMILES: Cl.O=C(NC1=Nc2ccccc2C2=NCCN12)c1cc2cccnc2nc1C(F)(F)F [Example 2-176]

melting point: 248 °C (dec.)
IC50 [1, 3]: > 2000 nM
SMILES: COc1cc(C(=O)NC2=Nc3ccccc3C3=NCCN23)cc(OC)c1C [Example 2-241]

melting point: > 280 °C
IC50 [1, 4]: 100 to 500 nM
SMILES: CC(=O)Nc1ccc(C(=O)NC2=Nc3c(Cl)cccc3C3=NCCN23)cn1 [Example 2-104]

melting point: 278 °C (dec.)
IC50 [1, 3]: 500 to 2000 nM
SMILES: NS(=O)(=O)c1ccc(C(=O)NC2=Nc3ccccc3C3=NCCN23)cc1 [Example 2-247]

melting point: 286 to 287 °C
IC50 [1, 3]: > 2000 nM
SMILES: O=C(NC1=Nc2ccccc2C2=NCCN12)c1ccc([N+](=O)[O-])s1 [Example 2-303]

melting point: 249 °C
IC50 [1, 4]: 100 to 500 nM
SMILES: Cl.O=C(NC1=Nc2cccc(Cl)c2C2=NCCN12)c1cccnc1 [Example 2-98]

melting point: 231 °C (dec.)
IC50 [1, 4]: 100 to 500 nM
SMILES: Cl.O=C(O)COc1ccc2c(c1)N=C(NC(=O)c1cccnc1)N1CCN=C21 [Example 2-203]

melting point: 289 °C (dec.)
IC50 [1, 3]: > 2000 nM
SMILES: CCOC(=O)c1cc(C(=O)NC2=Nc3ccccc3C3=NCCN23)cc(C(=O)OCC)c1 [Example 2-274]

melting point: 196 to 197 °C
IC50 [1, 3]: > 2000 nM
SMILES: O=C(NC1=Nc2ccccc2C2=NCCN12)c1cccc(Cl)c1 [Example 2-227]

melting point: 287 °C (dec.)
IC50 [1, 4]: < 100 nM
SMILES: COc1cc2c(cc1OC)C1=NCCN1C(NC(=O)c1cncc(O)c1)=N2 [Example 2-54]

melting point: 286 °C (dec.)
IC50 [1, 4]: 100 to 500 nM
SMILES: COc1cc(OC)c2c(c1)C1=NCCN1C(NC(=O)c1ccc(NC(C)=O)nc1)=N2 [Example 2-70]

melting point: 233 °C (dec.)
IC50 [1, 4]: < 100 nM
SMILES: COc1ccc2c(c1OC)N=C(NC(=O)c1cnc3[nH]cnc3c1)N1CCN=C21 [Example 2-51]

melting point: 262 °C
IC50 [1, 4]: 100 to 500 nM
SMILES: O=C(NC1=Nc2cc(Br)ccc2C2=NCCN12)c1ccc2[nH]cnc2c1 [Example 2-44]

melting point: 198 to 199 °C
IC50 [1, 4]: 100 to 500 nM
SMILES: O=C(NC1=Nc2ccccc2C2=NCCN12)c1sccc1Cl [Example 2-180]

melting point: 189 °C
IC50 [1, 3]: > 2000 nM
SMILES: CC(=O)NC1=Nc2ccccc2C2=NCCN12 [Example 2-326]

melting point: 265 °C (dec.)
IC50 [1, 4]: 100 to 500 nM
SMILES: O=C(NC1=Nc2ccccc2C2=NCCN12)c1c[nH]cn1 [Example 2-193]

melting point: 213 to 214 °C
IC50 [1, 3]: 100 to 500 nM
SMILES: Cc1ccc(C(=O)NC2=Nc3ccccc3C3=NCCN23)c(Cl)n1 [Example 2-290]

melting point: 233 °C
IC50 [1, 3]: > 2000 nM
SMILES: O=C(NC1=Nc2cccc(Cl)c2C2=NCCN12)c1cccs1 [Example 2-358]

melting point: 246 to 248 °C
IC50 [1, 3]: > 2000 nM
SMILES: Cc1cc(C)cc(C(=O)NC2=Nc3ccccc3C3=NCCN23)c1 [Example 2-219]

melting point: 210 °C (dec.)
IC50 [1, 4]: < 100 nM
SMILES: COc1cc2c(c(OC)c1C)N=C(NC(=O)c1cccnc1C)N1CCN=C21 [Example 2-77]

melting point: > 250 °C
IC50 [1, 4]: 100 to 500 nM
SMILES: Cc1ccsc1C(=O)NC1=Nc2ccccc2C2=NCCN12.Cl [Example 2-182]

melting point: 314 °C (dec.)
IC50 [1, 3]: 500 to 2000 nM
SMILES: Cl.O=C(NC1=Nc2ccccc2C2=NCCN12)c1ccc2ncsc2c1 [Example 2-313]

melting point: 340 °C (dec.)
IC50 [1, 4]: 100 to 500 nM
SMILES: Cl.O=C(NC1=Nc2ccccc2C2=NCCN12)c1cccnc1Cl [Example 2-135]

melting point: 236 to 237 °C
IC50 [1, 4]: 100 to 500 nM
SMILES: COc1cc2c(cc1OC)C1=NCCN1C(NC(=O)c1cc(C)nn1C)=N2 [Example 2-64]

melting point: 210 °C (dec.)
IC50 [1, 4]: < 100 nM
SMILES: COc1cc(OC)c2c(c1)C1=NCCN1C(NC(=O)c1ccc3[nH]cnc3c1)=N2 [Example 2-72]

melting point: 278 °C
IC50 [1, 4]: < 100 nM
SMILES: Cl.O=C(NC1=Nc2cc(Br)ccc2C2=NCCN12)c1ccc2[nH]cnc2c1 [Example 2-45]

melting point: 224 to 225 °C
IC50 [1, 3]: 500 to 2000 nM
SMILES: O=C(NC1=Nc2ccccc2C2=NCCN12)c1ccncc1 [Example 2-278]

melting point: 167 °C (dec.)
IC50 [1, 4]: 100 to 500 nM
SMILES: O=C(NC1=Nc2ccccc2C2=NCCN12)c1ccsc1 [Example 2-183]
